# Patent US9554990B2, “Cholecystokinin secretion-promoting composition” (J-OIL MILLS, INC., priority 2012, dated 2017)
# How the values were obtained:
# [1] = system: Mouse intestinal CCK-producing cell line STC-1; experiment: Confirmation test of CCK secretion-stimulating activity (CCK in supernatant, enzyme immunoassay); format: cell-based; set-up: key to CCK secretion-promoting activity Significant difference from vehicle Group 3 / CCK secretion-promoting activity Significant difference from vehicle Group 4 / CCK secretion-promoting activity Significant difference from vehicle Group 1 / CCK secretion-promoting activity Significant difference from vehicle Group 5: *: A significant difference (P < 0.05) was found; —: No significant difference was found; settings: for CCK secretion-promoting activity Significant difference from vehicle Group 1: experimental group 1; for CCK secretion-promoting activity Significant difference from vehicle Group 3: experimental group 3; for CCK secretion-promoting activity Significant difference from vehicle Group 4: experimental group 4; for CCK secretion-stimulating activity (in words): single test material
# Description: As a condition for maximizing the secretion amount of CCK in a cell test system, 70 mM KCl (positive control) causing hormone release by depolarization was prepared.
# Since the number of materials that can be tested at once is restricted, the test materials were divided into five groups as shown in Table 1. In order to solve the discontinuity between experimental groups, every group included trans,trans-2,4-decadienal. Each test material was tested three times, and the average value of the results was calculated.
# The test materials were each dissolved in ethanol, and each solution was diluted with Hepes buffer (140 mM NaCl, 4.5 mM KCl, 20 mM Hepes, 1.2 mM CaCl2, 1.2 mM MgCl2, and 10 mM D-glucose, pH 7.4) to give a 0.1 vol % ethanol solution, which was used as the evaluation solution.
# Mouse intestinal CCK-producing cell line STC-1 was cultured in a 48-well plate for two to three days until subconfluent in a Dulbecco's modified Eagle's medium containing 10% bovine fetal serum at 37° C. in the presence of 5% CO2. After the wells were washed with Hepes buffer, 100 μL of the evaluation solution containing 100 μM of a test material was added to a well, followed by incubation at 37° C. for 60 minutes. The supernatant was collected and was centrifuged (800×g, 5 min, 4° C.) to precipitate the exfoliated cells. The resulting supernatant (80 μL) was collected and was cryopreserved. The concentration of CCK in the supernatant was measured with a commercially available enzyme immunoassay kit (manufactured by Phoenix Pharmaceuticals, Inc.).
# In order to investigate the change in the secretion amount of CCK by addition of a test material to the cells in a general condition, a value obtained by subtracting the measured value of the vehicle from the measured value of a sample was used as the true value, and the score of the CCK secretion-stimulating activity was determined by dividing the true value by the value of 70 mM KCl as a control. The variance was analyzed for each experimental group. The difference in variance between an experimental group and the vehicle was examined for determining whether there was a significant difference (P<0.05). […]
# [2] = swallowing; cited from earlier work
# [3] = Table 2A, 100 μM test material, 60 minutes, STC-1, (sample minus vehicle) divided by value of 70 mM KCl control
# [4] = Table 2B, 100 μM test material, 60 minutes, STC-1, (sample minus vehicle) divided by value of 70 mM KCl control
# [5] = Table 3, single ingredient (100 μM) or control, relative to 70 mM KCl
compound,measurement,setting,value
"[Cl-].[K+] [70 mM KCl, KCl]",CCK secretion-promoting activity Score,[1]; [3],1
same,CCK secretion-promoting activity Score,[1]; [4],1
same,CCK secretion-promoting activity Score,[1]; [5],1
"CCCC=O.CCCC=O [Comparative Example 1, butanal (butyraldehyde)]",CCK secretion-promoting activity Score,[1]; [4],0.017
same,CCK secretion-promoting activity Significant difference from vehicle Group 1,"[1]; Table 2B, 100 μM",—
"CC/C=C\CCC=O [Comparative Example 11, cis-4-heptenal]",CCK secretion-promoting activity Score,[1]; [4],−0.001
"C/C=C/C=C/C=O [Example 1, trans,trans-2,4-hexadienal]",CCK secretion-promoting activity Score,[1]; [3],0.840
same,CCK secretion-promoting activity Significant difference from vehicle Group 1,"[1]; Table 2A, 100 μM",* (A significant difference (P < 0.05) was found)
"CC/C=C/C=C/C=O [Example 2, trans,trans-2,4-heptadienal]",CCK secretion-promoting activity Score,[1]; [3],0.885
same,CCK secretion-promoting activity Significant difference from vehicle Group 1,"[1]; Table 2A, 100 μM",* (A significant difference (P < 0.05) was found)
"CCCC/C=C/C=C/C=O [Example 3, trans,trans-2,4-nonadienal]",CCK secretion-promoting activity Score,[1]; [3],0.975
same,CCK secretion-promoting activity Significant difference from vehicle Group 1,"[1]; Table 2A, 100 μM",* (A significant difference (P < 0.05) was found)
"CCCCC/C=C/C=C/C=O [Example 4, trans,trans-2,4-decadienal]",CCK secretion-promoting activity Score,[1]; [3],1.088
same,CCK secretion-promoting activity Significant difference from vehicle Group 1,"[1]; Table 2A, 100 μM",* (A significant difference (P < 0.05) was found)
same,CCK secretion-promoting activity Significant difference from vehicle Group 3,"[1]; Table 2A, 100 μM",* (A significant difference (P < 0.05) was found)
same,CCK secretion-promoting activity Significant difference from vehicle Group 4,"[1]; Table 2A, 100 μM",* (A significant difference (P < 0.05) was found)
same,CCK secretion-promoting activity Significant difference from vehicle,"[1]; Table 3, single ingredient (100 μM)",* (A significant difference (P < 0.05) was found)
same,CCK secretion-promoting activity Score,[1]; [5],1.088
same,CCK secretion-stimulating activity (in words),[1]; STC-1,the highest
"CCCCCCC/C=C/C=C/C=O [Example 5, trans,trans-2,4-dodecadienal]",CCK secretion-promoting activity Score,[1]; [3],0.720
"C/C=C/C=O.C/C=C/C=O [Example 6, trans-2-butenal (crotonaldehyde)]",CCK secretion-promoting activity Score,[1]; [3],0.644
same,CCK secretion-promoting activity Significant difference from vehicle Group 1,"[1]; Table 2A, 100 μM",* (A significant difference (P < 0.05) was found)
"CCCC/C=C/C=O [Example 7, trans-2-heptenal]",CCK secretion-promoting activity Score,[1]; [3],0.624
same,CCK secretion-promoting activity Significant difference from vehicle Group 1,"[1]; Table 2A, 100 μM",* (A significant difference (P < 0.05) was found)
"CCCCC/C=C/C=O [Example 8, trans-2-octenal]",CCK secretion-promoting activity Score,[1]; [3],0.698
same,CCK secretion-promoting activity Significant difference from vehicle Group 4,"[1]; Table 2A, 100 μM",* (A significant difference (P < 0.05) was found)
"CCCCCC/C=C/C=O [Example 9, trans-2-nonenal]",CCK secretion-promoting activity Score,[1]; [3],0.491
same,CCK secretion-promoting activity Significant difference from vehicle Group 3,"[1]; Table 2A, 100 μM",—
"CCCCC/C=C/CCC=O [Example 10, trans-4-decenal]",CCK secretion-promoting activity Score,[1]; [3],0.441
"CCCCC/C=C\CCC=O [Example 11, cis-4-decenal]",CCK secretion-promoting activity Score,[1]; [3],0.377
same,CCK secretion-promoting activity Significant difference from vehicle Group 4,"[1]; Table 2A, 100 μM",—
"C=CC(=O)O [Example 12, acrylic acid]",CCK secretion-promoting activity Score,[1]; [3],0.957
same,CCK secretion-promoting activity Significant difference from vehicle Group 4,"[1]; Table 2A, 100 μM",* (A significant difference (P < 0.05) was found)
"CCCCCCCC=O [compound 2, octanal]",CCK secretion-promoting activity Score,[1]; [4],−0.004
same,CCK secretion-promoting activity Significant difference from vehicle Group 3,"[1]; Table 2B, 100 μM",—
"CCCCCCCCC=O [compound 3, nonanal]",CCK secretion-promoting activity Score,[1]; [4],−0.003
same,CCK secretion-promoting activity Significant difference from vehicle Group 1,"[1]; Table 2B, 100 μM",—
"CCCCCCCCCC=O [compound 4, decanal]",CCK secretion-promoting activity Score,[1]; [4],0.042
"CCCCCCCCCCC=O [compound 5, undecanal]",CCK secretion-promoting activity Score,[1]; [4],0.189
"CCCCCCCCCCCC=O [compound 6, dodecanal]",CCK secretion-promoting activity Score,[1]; [4],−0.093
"CCCCCCCCCCCCC=O [compound 7, tridecanal]",CCK secretion-promoting activity Score,[1]; [4],0.049
"CCCCCCC/C=C/C=O [compound 8, trans-2-decenal]",CCK secretion-promoting activity Score,[1]; [4],0.046
"CCCCCCCC/C=C/C=O [compound 9, trans-2-undecenal]",CCK secretion-promoting activity Score,[1]; [4],−0.137
same,CCK secretion-promoting activity Significant difference from vehicle Group 3,"[1]; Table 2B, 100 μM",—
"CCCCCCCCC/C=C/C=O [compound 10, trans-2-dodecenal]",CCK secretion-promoting activity Score,[1]; [4],−0.319
same,CCK secretion-promoting activity Significant difference from vehicle Group 3,"[1]; Table 2B, 100 μM",—
"CC/C=C\CCCCC=O [compound 12, cis-6-nonenal]",CCK secretion-promoting activity Score,[1]; [4],−0.648
same,CCK secretion-promoting activity Significant difference from vehicle Group 3,"[1]; Table 2B, 100 μM",—
"CC/C=C\CCCCCC=O [compound 13, cis-7-decenal]",CCK secretion-promoting activity Score,[1]; [4],0.274
"C=CCCCCCCCCC=O [compound 14, trans-10-undecenal]",CCK secretion-promoting activity Score,[1]; [4],−0.458
same,CCK secretion-promoting activity Significant difference from vehicle Group 3,"[1]; Table 2B, 100 μM",—
"C=CCO [compound 15, 2-propen-1-ol]",CCK secretion-promoting activity Score,[1]; [4],0.557
same,CCK secretion-promoting activity Significant difference from vehicle Group 4,"[1]; Table 2B, 100 μM",—
"CCCCC/C=C/CO [compound 16, trans-2-octen-1-ol]",CCK secretion-promoting activity Score,[1]; [4],0.321
same,CCK secretion-promoting activity Significant difference from vehicle Group 4,"[1]; Table 2B, 100 μM",—
"CCCCC/C=C\CCCO [compound 17, cis-4-decen-1-ol]",CCK secretion-promoting activity Score,[1]; [4],−0.171
same,CCK secretion-promoting activity Significant difference from vehicle Group 4,"[1]; Table 2B, 100 μM",—
"CCCCCCCCO [compound 18, 1-octanol]",CCK secretion-promoting activity Score,[1]; [4],−0.134
"CCCCCCCCCCO [compound 19, n-decyl alcohol]",CCK secretion-promoting activity Score,[1]; [4],0.070
"CCCCCCCCCCCCO [compound 20, dodecyl alcohol]",CCK secretion-promoting activity Score,[1]; [4],−0.304
"CCCCCCCCCCCCCO [compound 21, n-tridecyl alcohol]",CCK secretion-promoting activity Score,[1]; [4],−0.225
"CCCCCC/C=C/C(C)=O [compound 22, trans-3-decen-2-one]",CCK secretion-promoting activity Score,[1]; [4],0.169
"CCCCC/C=C/C(=O)O [compound 23, trans-2-octenoic acid]",CCK secretion-promoting activity Score,[1]; [4],0.146
same,CCK secretion-promoting activity Significant difference from vehicle Group 4,"[1]; Table 2B, 100 μM",—
"CCCCCCCC(=O)O [compound 24, n-octanoic acid]",CCK secretion-promoting activity Score,[1]; [4],−0.140
"CCCCCCCCCC(=O)O [compound 25, decanoic acid]",CCK secretion-promoting activity Score,[1]; [4],−0.207
"CCCCCCCCCCCC(=O)O [compound 26, lauric acid]",CCK secretion-promoting activity Score,[1]; [4],−0.225
"CCCCCCCCCCCCC(=O)O [compound 27, n-tridecanoic acid]",CCK secretion-promoting activity Score,[1]; [4],−0.234
"CCCCCCCCCC [compound 28, decane]",CCK secretion-promoting activity Score,[1]; [4],−0.224
"C/C=C\CCCCCCC [compound 29, cis-2-decene]",CCK secretion-promoting activity Score,[1]; [4],−0.208
C=CC=O [propenal],CCK secretion-stimulating activity (in words),[1]; STC-1,has a CCK-secreting activity
same,GHS class of acute toxicity,[2],class 2
"trans,trans-1,9-decadiene [compound 30]",CCK secretion-promoting activity Score,[1]; [4],−0.211
same,CCK secretion-promoting activity Significant difference from vehicle Group 5,"[1]; Table 2B, experimental group 5, 100 μM",—
